# Entries after “also recorded” stand apart in the source; their conditions may differ.
# Tested on: TNFα of HEPM cells stimulated by IL-1β
# Experiment: Cytokine concentration in IL-1β-stimulated cell culture after light plus photosensitizing dye
# Format: cell-based, human
# Settings: Fast Green at 1000 ppm combined with light at 625 nm for 2 minutes (9 mW/cm^2, 1.1 J/cm^2)
# Description: Cells used in this example include human embryonic palatal mesenchymal (HEFM) cells and oral keratinocytes OBA9 cells. The embodiments also can be used with other cells such as human gingival fibroblasts (HGF). Cells were seeded in 24-well plates and cultured until reaching a confluence above 80%. The confluent-stage cells were treated with stimulants such as IL-1β followed by light irradiation alone, or light irradiation combined with GRAS photosensitizing dye. The cells were either pre-incubated in photosensitizing dye before light exposure, or administered at the same time of light exposure. The cells were incubated in photosensitizing dyes for varied amounts of time, the concentration of photosensitizing dyes were varied, and the cell were irradiated with light for varied amounts of time per exposure, as well as irradiation either one time or multiple times, as described below. After irradiation, the cells were incubated at 37° C. The cell culture media was collected after a certain amount of time for cytokine analysis. The results tabulated below reveal that visible light (various wavelength, 380-700 nm) alone and photosensitizing dye irradiated with visible light (various wavelength, 380-700 nm) have anti-inflammation effect. […]
smiles,measurement,value
"CCN(Cc1cccc(S(=O)(=O)[O-])c1)c1ccc(C(=C2C=CC(=[N+](CC)Cc3cccc(S(=O)(=O)[O-])c3)C=C2)c2ccc(O)cc2S(=O)(=O)[O-])cc1.[Na+].[Na+] [Fast Green, Fast Green FCF (FD&C Green No. 3)]",Effect on TNFα concentration in the in vitro cell culture,can decrease pro-inflammation cytokine TNFα concentration; also recorded: can reduce concentration of TNFα

# Reference: patent US9211420B2, “Kit containing photosensitizing dyes” (Colgate-Palmolive Company, priority 2009, dated 2015)
